Entries after “also recorded” stand apart in the source; their conditions may differ.
Tests used:
human IL-36β = target: T1, human IL-36β (Homo sapiens, UniProt Q9NZH7); experiment: Affinity for human IL-36β; assay type: binding
T1 sequence (Q9NZH7 5-164): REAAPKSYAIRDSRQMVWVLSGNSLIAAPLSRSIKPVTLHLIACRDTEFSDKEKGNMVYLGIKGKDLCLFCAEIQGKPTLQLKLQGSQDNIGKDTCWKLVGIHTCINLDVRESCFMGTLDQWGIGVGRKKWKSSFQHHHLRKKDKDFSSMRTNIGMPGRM

[1] = system: human IL-36γ evoked CXCL1 release from Human HaCaT cells; experiment: human IL-36γ evoked CXCL1 release, human HaCaT cells; assay type: cell-based; details: ± S.D.
Method: (§1) The immortalized human keratinocyte cell line HaCaT and mouse fibroblast NIH-3T3 cell line were maintained in culture in DMEM with 10% fetal bovine serum and 1% penicillin/streptomycin added (Sigma). Cells were seeded in 96-well tissue culture plates (Corning) at 25,000 cells per well and allowed to adhere and recover overnight at 37 °C in an incubator. Cells were rinsed with PBS (Sigma) and treated with cytokines diluted in 200 μL/well of the medium (DMEM with 0.5% FBS and 1% penicillin/streptomycin) as indicated. In inhibition mode, the agonist concentration used was at the EC80 for chemokine production and the cells were pre-treated with inhibitors for 30 min prior to adding the agonist. After 24 h of treatment, supernatants were collected and IL-8 and CXCL1[28] levels were assessed using a custom immunoassay (Meso Scale Discovery). EC50/IC50 values were estimated from a four-parameter logistic fit using Prism software (GraphPad).

[2] = system: human IL-36γ induced plasma CXCL1; experiment: hIL-36γ induced CXCL1 release in mouse plasma; assay type: in vivo; details: C57BL/6 mice, compounds 10, 30 and 100 mg/kg p.o.; antibody i.p.
Description: Female C57BL/6 mice (9–10 weeks old, 19–23 g) were purchased from Charles River Laboratories. All animal procedures were approved by AbbVie’s Institutional Animal Care and Use Committee (IACUC) and performed in accordance with the relevant IACUC guidelines and regulations. To examine engagement of human IL-36γ with antagonists under in vivo conditions, a mouse acute CXCL1 release assay was established which was similar to one previously reported. Plasma CXCL1 secretion was induced by subcutaneous injection of 2 μg human IL-36γ (in 100 μL PBS) into C57BL/6 mice. Blood was withdrawn via cardiac puncture 2 h after the challenge with IL-36γ. A-552 and A-553 were dosed at 10, 30 and 100 mg/kg p.o. 45 min before IL-36γ challenge. Anti-IL36R antibodies were dosed i.p. at 24 hours before IL-36γ challenge. Plasma CXCL1 levels were analyzed using MSD V-PLEX kit.

human IL-36α = target: T2, human IL-36α (Homo sapiens, UniProt Q9UHA7); experiment: Thermal shift assay / affinity, human IL-36α; assay type: binding; details: thermal shift assay at 100 μM (Supplementary Fig. 4)
T2 construct: using recombinant truncated proteins
T2 sequence (Q9UHA7 6-158): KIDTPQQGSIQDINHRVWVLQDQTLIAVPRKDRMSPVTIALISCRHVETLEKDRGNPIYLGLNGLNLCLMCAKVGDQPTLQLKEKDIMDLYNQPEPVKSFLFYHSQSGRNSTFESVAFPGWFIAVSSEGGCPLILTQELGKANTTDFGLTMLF
Method: (§2) Thermal shift assays[30] were performed on a Roche LightCycler 480 instrument using Sypro Orange Dye (Invitrogen). Reactions consisted of 0.5–2 µM purified recombinant protein in PBS, pH 7.4, a 1/500 dilution of the stock Sypro Orange reagent, and 100 µM test compounds, resulting in a final DMSO concentration of 1%. The samples were heated from 20 °C to 95 °C at a rate of 0.25 °C per second.

[3] = Drug plasma levels / oral exposure in mice; details: mouse, in vivo
mouse IL-36γ = target: T3, mouse IL-36γ (Mus musculus, UniProt Q8R460); experiment: Affinity for mouse IL-36γ; assay type: binding
T3 sequence (Q8R460 13-164): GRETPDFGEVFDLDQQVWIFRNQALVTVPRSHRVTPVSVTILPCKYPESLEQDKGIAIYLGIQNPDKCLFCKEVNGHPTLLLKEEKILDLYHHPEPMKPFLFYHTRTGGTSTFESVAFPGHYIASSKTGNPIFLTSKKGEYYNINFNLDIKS

[4] = system: IL-36γ evoked CXCL1 release from Mouse NIH-3T3 cells; experiment: IL-36γ evoked CXCL1 release, mouse NIH-3T3 cells; assay type: cell-based; details: human IL-36γ evoked CXCL1 release, ± S.D.
Method: as §1

human IL-36γ [5] = target: T4, human IL-36γ (Homo sapiens, UniProt Q9NZH8); experiment: Isothermal titration calorimetry; assay type: binding; details: 25 °C, pH 7.5; read-out: KD (ITC)
T4 construct: His6-SUMO-human IL-36γ (18–169); His6-SUMO (N, cleaved yes); made in house; host or cells: E. coli BL21 (DE3)
T4 sequence (Q9NZH8 18-169): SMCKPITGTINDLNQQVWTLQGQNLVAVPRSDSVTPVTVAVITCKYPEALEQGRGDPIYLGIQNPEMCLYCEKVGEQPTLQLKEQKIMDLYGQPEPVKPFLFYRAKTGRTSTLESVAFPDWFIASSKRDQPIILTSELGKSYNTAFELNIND
Method: All experiments were carried out on a MicroCal^TM Auto-ITC200 at 25 °C in 50 mM HEPES (pH = 7.5), 150 mM NaCl, 0.5 mM TCEP, 2% DMSO. IL-36γ protein solution was buffer exchanged by gel filtration into the isothermal titration calorimetry (ITC) buffer and diluted to 40 µM. The titrations were conducted using an initial injection of 0.2 µL followed by 19 identical injections of 2 µL of 400 µM compound solution. Thermodynamic parameters were calculated using ∆G = ∆H − T∆S = −RTlnKB, where ∆G, ∆H and ∆S are the changes in free energy, enthalpy and entropy of binding respectively. A single binding site model was employed.

mouse IL-36α = target: T5, mouse IL-36α (Mus musculus, UniProt Q9JLA2); experiment: Cross-reactivity to mouse IL-36α; assay type: binding
T5 sequence (Q9JLA2 8-160): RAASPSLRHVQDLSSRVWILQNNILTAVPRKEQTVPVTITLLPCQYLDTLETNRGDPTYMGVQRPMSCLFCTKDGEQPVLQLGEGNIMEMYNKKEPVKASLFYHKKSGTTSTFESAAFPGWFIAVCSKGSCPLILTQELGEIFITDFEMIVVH

human IL-36γ [6] = target: T4, human IL-36γ; experiment: Thermal shift assay, human IL-36γ; assay type: binding; details: 100 μM compound; read-out: increase of melting temperature of human IL-36γ
Method: as §2

With `COC(c1ccccc1)(c1ccccc1)[C@H](Oc1nc(C)cc(-c2ccc(C)c(N)c2)n1)C(=O)O` [Compound A-552] the “affinity for human IL-36β” value (human IL-36β) was “does not show affinity”, the Ki [1] was 31 ± 22 nM and the “effect on hIL-36γ induced plasma CXCL1 release (in words)” value [2] was “robustly attenuated CXCL1 levels in plasma in a dose-dependent manner”. For the same compound, the “binding / affinity to human IL-36α” value (human IL-36α) was “do not bind; also recorded: does not show affinity”, the oral bioavailability [3] was “orally bioavailable” and the “affinity for mouse IL-36γ” value (mouse IL-36γ) was “does not show affinity”. The Ki [4] was 54 ± 10 nM, the Kd (human IL-36γ [5]) was 67.6 ± 6 nM and the “cross-reactivity to mouse IL-36α” value (mouse IL-36α) was “lack of species cross-reactivity”. It also gave a ΔTm at 100 µM (human IL-36γ [6]) of 6.1 °C.

— article PMC6591177, “Small Molecule IL-36γ Antagonist as a Novel Therapeutic Approach for Plaque Psoriasis” (Scientific Reports, 2019)
